Values of other authors in patent US12220416B2, “Methylene-tetrahydrofolate reductase isoform-based biomarker and method of use thereof” (RUSH UNIVERSITY MEDICAL CENTER, priority 2017, dated 2025).

Settings: RA patients on MTX therapy; ADEs provoke discontinuation of MTX therapy; ref [38]

Structure (SMILES): CN(Cc1cnc2nc(N)nc(N)c2n1)c1ccc(C(=O)N[C@@H](CCC(=O)O)C(=O)O)cc1 [MTX, Methotrexate]
- RA patients developing MTX-related adverse drug events (ADEs): approximately 30%
